Measured values published in PubChem BioAssay (NCI).
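Test compounds were applied to cells in 96-well plates for 48 hours at 5 doses. GI50 = concentration required for 50% inhibition of growth. TGI is the concentration that stops growth completely.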

Experiments:
Assay in all cases: NCI tumour cell line growth inhibition, 48 h
MDA-MB-231 breast = tested on: MDA-MB-231 breast
NCI-H460 lung = tested on: NCI-H460 lung
SN12C renal = tested on: SN12C renal
UO-31 renal = tested on: UO-31 renal
MDA-MB-435 = tested on: MDA-MB-435
UACC-257 melanoma = tested on: UACC-257 melanoma
786-0 renal = tested on: 786-0 renal
RPMI-8226 leukemia = tested on: RPMI-8226 leukemia
HS 578T breast = tested on: HS 578T breast
CAKI-1 renal = tested on: CAKI-1 renal
HCT-15 colon = tested on: HCT-15 colon
SK-OV-3 ovarian = tested on: SK-OV-3 ovarian
MALME-3M melanoma = tested on: MALME-3M melanoma
CCRF-CEM leukemia = tested on: CCRF-CEM leukemia
IGROV1 ovarian = tested on: IGROV1 ovarian
SK-MEL-2 melanoma = tested on: SK-MEL-2 melanoma
SNB-75 CNS = tested on: SNB-75 CNS
OVCAR-5 ovarian = tested on: OVCAR-5 ovarian
NCI-H522 lung = tested on: NCI-H522 lung
T-47D breast = tested on: T-47D breast
A549 NSCLC = tested on: A549 NSCLC
NCI/ADR-RES ovarian = tested on: NCI/ADR-RES ovarian
HCC-2998 colon = tested on: HCC-2998 colon
HOP-92 NSCLC = tested on: HOP-92 NSCLC
HL-60(TB) leukemia = tested on: HL-60(TB) leukemia
PC-3 prostate = tested on: PC-3 prostate
SF-268 CNS = tested on: SF-268 CNS
NCI-H23 lung = tested on: NCI-H23 lung
M14 melanoma = tested on: M14 melanoma
LOX IMVI melanoma = tested on: LOX IMVI melanoma
RXF 393 renal = tested on: RXF 393 renal
EKVX NSCLC = tested on: EKVX NSCLC
OVCAR-3 ovarian = tested on: OVCAR-3 ovarian
UACC-62 melanoma = tested on: UACC-62 melanoma
HOP-62 NSCLC = tested on: HOP-62 NSCLC
SNB-19 CNS = tested on: SNB-19 CNS
NCI-H226 lung = tested on: NCI-H226 lung
DU-145 prostate = tested on: DU-145 prostate
SK-MEL-5 melanoma = tested on: SK-MEL-5 melanoma
SR leukemia = tested on: SR leukemia
MOLT-4 leukemia = tested on: MOLT-4 leukemia
OVCAR-4 ovarian = tested on: OVCAR-4 ovarian
SF-295 CNS = tested on: SF-295 CNS
SW-620 colon = tested on: SW-620 colon
ACHN renal = tested on: ACHN renal
U251 CNS = tested on: U251 CNS
A498 renal = tested on: A498 renal
K-562 leukemia = tested on: K-562 leukemia
BT-549 breast = tested on: BT-549 breast
MCF7 breast = tested on: MCF7 breast
SF-539 CNS = tested on: SF-539 CNS
TK-10 renal = tested on: TK-10 renal
HT29 colon = tested on: HT29 colon
OVCAR-8 ovarian = tested on: OVCAR-8 ovarian
KM12 colon = tested on: KM12 colon
COLO 205 colon = tested on: COLO 205 colon
SK-MEL-28 melanoma = tested on: SK-MEL-28 melanoma
HCT-116 colon = tested on: HCT-116 colon

Fc1ccc(-c2nnc3sc(-c4cc(Cl)cc(Cl)c4)nn23)cc1Cl
GI50 (MDA-MB-231 breast): 17.2 µM | TGI (MDA-MB-231 breast): 39.4 µM | GI50 (NCI-H460 lung): 39.3 µM | TGI (NCI-H460 lung): > 100 µM | GI50 (SN12C renal): 34.2 µM | TGI (SN12C renal): > 100 µM | GI50 (UO-31 renal): 39.6 µM | TGI (UO-31 renal): > 100 µM | GI50 (MDA-MB-435): > 100 µM | TGI (MDA-MB-435): > 100 µM | GI50 (UACC-257 melanoma): 38.2 µM | TGI (UACC-257 melanoma): > 100 µM | GI50 (786-0 renal): 29.7 µM | TGI (786-0 renal): > 100 µM | GI50 (RPMI-8226 leukemia): 46.8 µM | TGI (RPMI-8226 leukemia): > 100 µM | GI50 (HS 578T breast): 45.2 µM | TGI (HS 578T breast): > 100 µM | GI50 (CAKI-1 renal): 33.5 µM | TGI (CAKI-1 renal): 96.4 µM | GI50 (HCT-15 colon): 72.5 µM | TGI (HCT-15 colon): > 100 µM | GI50 (SK-OV-3 ovarian): 24.6 µM | TGI (SK-OV-3 ovarian): 46.3 µM | GI50 (MALME-3M melanoma): 37.7 µM | TGI (MALME-3M melanoma): > 100 µM | GI50 (CCRF-CEM leukemia): 29 µM | TGI (CCRF-CEM leukemia): 86.8 µM | GI50 (IGROV1 ovarian): > 100 µM | TGI (IGROV1 ovarian): > 100 µM | GI50 (SK-MEL-2 melanoma): > 100 µM | TGI (SK-MEL-2 melanoma): > 100 µM | GI50 (SNB-75 CNS): 13 µM | TGI (SNB-75 CNS): 30.1 µM | GI50 (OVCAR-5 ovarian): 70.1 µM | TGI (OVCAR-5 ovarian): > 100 µM | GI50 (NCI-H522 lung): 49.7 µM | TGI (NCI-H522 lung): > 100 µM | GI50 (T-47D breast): > 100 µM | TGI (T-47D breast): > 100 µM | GI50 (A549 NSCLC): 24.4 µM | TGI (A549 NSCLC): 61.8 µM | GI50 (NCI/ADR-RES ovarian): 34.9 µM | TGI (NCI/ADR-RES ovarian): > 100 µM | GI50 (HCC-2998 colon): > 100 µM | TGI (HCC-2998 colon): > 100 µM | GI50 (HOP-92 NSCLC): 20.5 µM | TGI (HOP-92 NSCLC): 52.4 µM | GI50 (HL-60(TB) leukemia): 99.1 µM | TGI (HL-60(TB) leukemia): > 100 µM | GI50 (PC-3 prostate): 61.3 µM | TGI (PC-3 prostate): > 100 µM | GI50 (SF-268 CNS): 53 µM | TGI (SF-268 CNS): > 100 µM | GI50 (NCI-H23 lung): 37.2 µM | TGI (NCI-H23 lung): > 100 µM | GI50 (M14 melanoma): 41.3 µM | TGI (M14 melanoma): > 100 µM | GI50 (LOX IMVI melanoma): 32.8 µM | TGI (LOX IMVI melanoma): > 100 µM | GI50 (RXF 393 renal): 1.51 µM | TGI (RXF 393 renal): 26.4 µM | GI50 (EKVX NSCLC): > 100 µM | TGI (EKVX NSCLC): > 100 µM | GI50 (OVCAR-3 ovarian): > 100 µM | TGI (OVCAR-3 ovarian): > 100 µM | GI50 (UACC-62 melanoma): 31.1 µM | TGI (UACC-62 melanoma): > 100 µM | GI50 (HOP-62 NSCLC): 20.3 µM | TGI (HOP-62 NSCLC): 42 µM | GI50 (SNB-19 CNS): 32.3 µM | TGI (SNB-19 CNS): > 100 µM | GI50 (NCI-H226 lung): 34.3 µM | TGI (NCI-H226 lung): > 100 µM | GI50 (DU-145 prostate): > 100 µM | TGI (DU-145 prostate): > 100 µM | GI50 (SK-MEL-5 melanoma): > 100 µM | TGI (SK-MEL-5 melanoma): > 100 µM | GI50 (SR leukemia): 13.3 µM | TGI (SR leukemia): 43.8 µM | GI50 (MOLT-4 leukemia): 72.9 µM | TGI (MOLT-4 leukemia): > 100 µM | GI50 (OVCAR-4 ovarian): 17.4 µM | TGI (OVCAR-4 ovarian): 53.4 µM | GI50 (SF-295 CNS): 74.2 µM | TGI (SF-295 CNS): > 100 µM | GI50 (SW-620 colon): 45 µM | TGI (SW-620 colon): > 100 µM | GI50 (ACHN renal): 21 µM | TGI (ACHN renal): 45.6 µM | GI50 (U251 CNS): 17.3 µM | TGI (U251 CNS): 43.6 µM | GI50 (A498 renal): 29 µM | TGI (A498 renal): 77.9 µM | GI50 (K-562 leukemia): > 100 µM | TGI (K-562 leukemia): > 100 µM | GI50 (BT-549 breast): 87.1 µM | TGI (BT-549 breast): > 100 µM | GI50 (MCF7 breast): 30.5 µM | TGI (MCF7 breast): > 100 µM | GI50 (SF-539 CNS): > 100 µM | TGI (SF-539 CNS): > 100 µM | GI50 (TK-10 renal): 20.5 µM | TGI (TK-10 renal): 44 µM | GI50 (HT29 colon): 28.1 µM | TGI (HT29 colon): 83.3 µM | GI50 (OVCAR-8 ovarian): 46.6 µM | TGI (OVCAR-8 ovarian): > 100 µM | GI50 (KM12 colon): > 100 µM | TGI (KM12 colon): > 100 µM | GI50 (COLO 205 colon): 56.6 µM | TGI (COLO 205 colon): > 100 µM | GI50 (SK-MEL-28 melanoma): > 100 µM | TGI (SK-MEL-28 melanoma): > 100 µM | GI50 (HCT-116 colon): 18.5 µM | TGI (HCT-116 colon): 44.2 µM
